Read-outs that look alike come from different tables or passages of the source.
Tests used:
AChE from electric eel = AChE from electric eel (Electrophorus electricus, UniProt O42275); assay: biochemical; conditions: read-out: % of inhibition at 25 μg/mL AChE
BChE from equine serum = BChE from equine serum (Equus caballus, UniProt P81908); assay: biochemical; type: biochemical; conditions: for inhibition at 25 µg/mL: read-out: % of inhibition at 25 μg/mL BChE; for BChE inhibition described in words: structure-activity discussion
Sequence of BChE from equine serum (P81908 whole entry): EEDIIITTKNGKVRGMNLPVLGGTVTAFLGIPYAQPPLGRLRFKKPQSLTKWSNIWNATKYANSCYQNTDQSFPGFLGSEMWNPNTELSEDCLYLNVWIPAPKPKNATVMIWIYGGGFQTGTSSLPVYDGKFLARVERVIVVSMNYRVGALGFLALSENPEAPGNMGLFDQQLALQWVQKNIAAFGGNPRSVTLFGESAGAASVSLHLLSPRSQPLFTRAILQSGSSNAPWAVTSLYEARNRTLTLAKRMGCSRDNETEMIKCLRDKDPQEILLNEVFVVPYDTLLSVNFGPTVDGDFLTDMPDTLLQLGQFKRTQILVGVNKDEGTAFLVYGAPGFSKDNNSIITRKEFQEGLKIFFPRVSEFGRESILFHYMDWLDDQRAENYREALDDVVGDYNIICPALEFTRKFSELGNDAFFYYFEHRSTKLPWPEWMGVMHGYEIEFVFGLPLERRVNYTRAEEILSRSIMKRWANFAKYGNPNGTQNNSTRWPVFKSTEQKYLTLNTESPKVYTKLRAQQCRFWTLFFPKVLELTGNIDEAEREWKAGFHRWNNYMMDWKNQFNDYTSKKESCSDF

BChE = BChE (Equus caballus, UniProt P81908); assay: Kinetic characterization of BChE inhibition (Lineweaver–Burk plots, secondary plots); type: biochemical, equine; conditions: for Mode of BChE inhibition: Lineweaver–Burk plots; for Ki: estimated by secondary plots of Lineweaver–Burk plots, substrate BTCI
Sequence of BChE (P81908 whole entry): as above
Procedure: […]. Five increasing concentrations of BTCI as a substrate in the presence of three different concentrations of compound were used in the kinetic measurement. The concentrations of the enzyme and DNTB used in the determination are 0.226 U/mL and 3 mM respectively. The inhibition constants (Ki) of the inhibitors were determined by the secondary plots which constructed using the slopes of the Lineweaver–Burk plots.

Sequence of AChE from electric eel (O42275 24-633): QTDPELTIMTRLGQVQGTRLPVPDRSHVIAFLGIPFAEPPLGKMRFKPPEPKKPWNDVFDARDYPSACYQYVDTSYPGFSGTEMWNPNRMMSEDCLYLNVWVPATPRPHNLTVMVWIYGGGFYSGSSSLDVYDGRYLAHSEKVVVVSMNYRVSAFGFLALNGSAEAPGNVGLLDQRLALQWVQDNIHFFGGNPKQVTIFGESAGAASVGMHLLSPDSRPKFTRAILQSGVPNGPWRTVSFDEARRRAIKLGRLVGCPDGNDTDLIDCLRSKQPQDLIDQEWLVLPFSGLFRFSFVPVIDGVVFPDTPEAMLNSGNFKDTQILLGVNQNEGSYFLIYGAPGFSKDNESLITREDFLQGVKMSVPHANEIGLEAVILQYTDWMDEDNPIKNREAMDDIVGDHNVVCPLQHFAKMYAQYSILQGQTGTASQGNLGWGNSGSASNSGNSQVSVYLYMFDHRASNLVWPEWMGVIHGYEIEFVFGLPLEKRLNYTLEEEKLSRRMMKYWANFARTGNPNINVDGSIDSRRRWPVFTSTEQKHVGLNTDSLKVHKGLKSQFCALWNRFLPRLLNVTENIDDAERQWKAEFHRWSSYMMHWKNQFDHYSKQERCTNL

Row | SMILES | inhibition at 25 µg/mL (AChE from electric eel) | Selectivity ratio (BChE from equine serum) | IC50 (BChE from equine serum; mean ± SD of three experiments) | inhibition at 25 µg/mL (BChE from equine serum) | Mode of BChE inhibition (BChE) | Ki (BChE) | inhibition at 25 µg/mL (BChE from equine serum; 25 μg/mL final concentration, mean ± SD of three experiments) | BChE inhibition described in words (BChE from equine serum)
1 | COc1cccc(CCc2cc(OC)cc(O)c2Cc2ccc(O)cc2)c1 [Compound 1, gymconopin D] | 48.1 ± 6.3% | > 1.7 | 40.5 ± 5.6 µM | 66.2 ± 3.4% |  |  |  | 
2 | COc1cccc(CCc2cc(O)cc(OC)c2Cc2ccc(O)cc2)c1 [Compound 2, bulbocol] | 16.3 ± 3.8% | > 2.1 | 33.5 ± 3.7 µM | 67.7 ± 0.3% |  |  |  | 
3 | COc1cc(O)cc(CCc2cccc(O)c2)c1Cc1ccc(O)cc1 [Compound 3, 3′,5-dihydroxy-2-(4-hydroxybenzyl)-3-methoxybibenzyl] | 5 ± 1.5% |  | 80.3 ± 5.2 µM | 51.3 ± 2% |  |  |  | 
4 | COc1cc(O)c(Cc2ccc(O)cc2)c(CCc2cccc(O)c2)c1 [Compound 4, isoarundinin II] | 0.9 ± 0.8% |  |  | 39.3 ± 2.3% |  |  |  | 
5 | COc1cc(CCc2cccc(O)c2)cc(O)c1Cc1ccc(O)cc1 [Compound 5, 3,3′-dihydroxy-4-(4-hydroxybenzyl)-5-methoxybibenzyl] | 2.6 ± 2.8% |  |  | 22.6 ± 2.1% |  |  |  | 
6 | COc1ccc2c(ccc3c(Cc4ccc(O)cc4)c(O)cc(OC)c32)c1O [Compound 6, 1-(p-hydroxybenzyl)-4,7-dimethoxyphenanthrene-2,8-diol] | 20.4 ± 4.5% | > 9.5 | 6.4 ± 0.2 µM | 85.2 ± 2.9% | mixed-type | 14 µM |  | 
7 | COc1c(Cc2ccc(O)cc2)c(O)cc2c1-c1ccc(O)cc1CC2 [Compound 7, 3-(4-hydroxybenzyl)-4-methoxy-9,10-dihydrophenanthrene-2,7-diol] | 9.6 ± 2.6% | > 2.1 | 34 ± 1.4 µM | 65.7 ± 0.7% |  |  |  | 
8 | COc1c(O)cc2ccc3c(Cc4ccc(O)cc4)c(O)ccc3c2c1OC [Compound 8, bleformin A] | 18.5 ± 1.7% | > 13.1 | 5.2 ± 0.4 µM | 70 ± 1% | mixed-type | 4.7 µM |  | 
9 | COc1cc(O)c2c(c1Cc1ccc(O)cc1)CCc1cc(O)ccc1-2 [Compound 9, shancidin] | 15.2 ± 3.6% | > 4.3 | 16.7 ± 2 µM | 72.8 ± 3.4% |  |  |  | 
10 | COc1cc(O)c(Cc2ccc(O)cc2)c2ccc3cc(O)ccc3c12 [Compound 10, 1-[(4-hydroxyphenyl)methyl]-4-methoxy-2,7-phenanthrenediol] | 19.1 ± 3.8% | > 34.7 | 2.1 ± 0.3 µM | 96.6 ± 1.2% | non-competitive | 5.4 µM |  | 
11 | COc1c(Cc2ccc(O)cc2)c(O)c(Cc2ccc(O)cc2)c2c1-c1ccc(O)cc1CC2 [Compound 11, 2,7-dihydroxy-1,3-bi(p-hydroxybenzyl)-4-methoxy-9,10-dihydrophenanthrene] | 20.1 ± 3.5% | > 1.2 | 44.6 ± 4.1 µM | 53.1 ± 1.2% |  |  |  | 
12 | COc1cc(O)c(Cc2ccc(O)cc2)c2ccc3c(Cc4ccc(O)cc4)c(O)ccc3c12 [Compound 12, 1,8-bis(4-hydroxybenzyl)-4-methoxyphenanthrene-2,7-diol] | 16.1 ± 5% | > 23.1 | 2.3 ± 0.4 µM | 95.4 ± 0.3% | non-competitive | 6.6 µM |  | 
13 | COc1c(O)c(Cc2ccc(O)cc2)c2ccc3cc(O)ccc3c2c1OC [Compound 13, bleformin B] | 9.9 ± 4.7% | > 4.0 | 16.7 ± 2.4 µM | 75.7 ± 1.1% |  |  |  | 
14 | COc1cc(O)cc2c1-c1ccc(Oc3c(O)cc(OC)c4c3ccc3cc(O)ccc34)cc1CC2 [Compound 14, blestrin D] | 6.8 ± 1.6% | > 6.8 | 8.1 ± 0.5 µM |  | mixed-type | 10.9 µM | 69 ± 2.5% | 
15 | COc1cc(Oc2c(O)cc(OC)c3c2CCc2cc(O)ccc2-3)cc2c1-c1ccc(O)cc1CC2 [Compound 15, blestrin A] | 8.4 ± 3.1% | > 2.9 | 17.9 ± 4.7 µM | 64 ± 2.6% |  |  |  | 
16 | COc1cc(Oc2c(O)cc(OC)c3c2ccc2cc(O)ccc23)cc2c1-c1ccc(O)cc1CC2 [Compound 16, blestrin C] | 4.9 ± 3.2% | > 4.3 | 12.1 ± 3.4 µM | 64.3 ± 2.4% |  |  |  | 
17 | COc1cc(C2COc3cc(OC)c4c(c3C2O)CCc2cc(O)ccc2-4)ccc1O (stereo not shown) [Compound 17, shanciol F] | 5.5 ± 1.8% |  |  | 21.8 ± 3.1% |  |  |  | 
18 | COc1cc([C@@H]2Oc3cc4c(cc3[C@H]2CO)-c2c(cc(O)cc2OC)CC4)ccc1O [Compound 18, bletilol D] | 5.7 ± 2.8% |  |  | 31.6 ± 2.8% |  |  |  | 
19 | COc1cc(C2Oc3cc4c(c(OC)c3C2CO)-c2ccc(O)cc2CC4)ccc1O (stereo not shown) [Compound 19, 9-(4′-hydroxy-3′-methoxyphenyl)-10-(hydroxymethyl)-11-methoxy-5,6,9, 10-tetrahydrophenanthro[2,3-b] furan-3-ol] | 3.3 ± 1.8% | > 1.7 | 35.8 ± 9.2 µM | 61.2 ± 1.3% |  |  |  | 
20 | COc1cc([C@@H]2Oc3cc(OC)c4c(c3[C@H]2Cc2c(O)cc(OC)c3c2CCc2cc(O)ccc2-3)CCc2cc(O)ccc2-4)ccc1O [Compound 20, Bletilol E] | 5.1 ± 4% |  |  | 8 ± 2.4% |  |  |  | weak inhibition potency
21 | COc1cc(O)cc(/C=C\c2cccc(O)c2)c1 [Compound 21, pholidotol D] | 5.2 ± 3.2% |  |  | 29.1 ± 1.3% |  |  |  | 
22 | COc1cc(O)c(-c2c(O)cc(OC)c3c2CCc2cc(O)ccc2-3)c2c1-c1ccc(O)cc1CC2 [Compound 22, flavanthrin] | 13.3 ± 2.9% | > 1.2 | 42.2 ± 5.1 µM | 56.7 ± 2% |  |  |  | moderate efficacy
23 | COc1ccc2c3c1O[C@H]1C[C@@H](O)C=C[C@@]31CCN(C)C2 [Galantamine, reference compound] |  |  |  | 64.2 ± 0.6% |  |  |  | 
